Measured values: patent US6730666B1, “Pharmaceutical compositions comprising porphyrins and some novel porphyrin derivatives” (Yeda Research and Development Co. Ltd., priority 1998, dated 2004)
Where two headings read alike, the source gives them in different places.

Key:
[1] = tested on: microvascular tubules sprouting from rat aorta sections; test: Rat aorta in vitro angiogenesis assay (collagen gel, bFGF-induced); type: cell-based
Experimental: (vi) Rat aorta in vitro angiogenesis assay. Rings of rat aorta sections were immobilized in a three-dimensional collagen gel, in the presence of serum free growth medium (D/MEM) (Nicosia & Ottinetti, 1990). Porphyrin or corrole compound and bFGF (2 ng/ml) were added to the growth medium twice a week when indicated. After 14 days the cultures were fixed, and the extent of microvascular endothelial tube outgrowth was measured under a light microscope (Miao et al., 1997).
The effect of P1 was further examined in a biological assay for angiogenesis in vitro. Angiogenic vascularization is a process in which bFGF is known to play a pivotal role (Folkman, 1989). To examine the inhibitory effects of the porphyrin on bFGF-promoted angiogenesis, we employed an in vitro angiogenic assay using rat aorta sections embedded in a collagen gel (Methods, section (vi)). The assay measures the extent of endothelial cell growth and microvascular tubules sprouting from the vessel tissue embedded in the gel. Basal tubule formation can be detected even when no additional factors are added.

[2] = molecular target: T1, FGFR-1 alkaline phosphatase fusion protein (FRAP) (Mus musculus, UniProt P16092); test: Binding of soluble FGFR-1 alkaline phosphatase fusion protein (FRAP) to bFGF immobilized on heparin (Screen AP assay)
T1 construct: soluble FGFR-1 ectodomain alkaline phosphatase fusion protein (FRAP); made in house; host or cells: NIH 3T3 cells (conditioned medium)
T1 sequence (P16092 22-376 limits assumed): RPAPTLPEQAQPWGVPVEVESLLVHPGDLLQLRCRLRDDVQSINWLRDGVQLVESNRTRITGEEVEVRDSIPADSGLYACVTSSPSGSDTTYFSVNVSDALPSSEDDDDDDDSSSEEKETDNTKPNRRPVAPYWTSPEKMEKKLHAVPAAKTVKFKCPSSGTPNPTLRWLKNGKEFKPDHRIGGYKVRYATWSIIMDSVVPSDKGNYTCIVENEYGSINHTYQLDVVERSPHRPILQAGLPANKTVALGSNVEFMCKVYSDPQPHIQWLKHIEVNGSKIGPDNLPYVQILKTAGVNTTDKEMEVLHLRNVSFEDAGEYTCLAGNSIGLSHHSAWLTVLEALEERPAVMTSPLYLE
Experimental: (ii) Binding of soluble FGFR-1 alkaline phosphatase fusion protein (FRAP) to immobilized bFGF. […] The end-point of the assay measured enzymatically the formation of FGF-receptor complexes quantitated by the specifically associated alkaline phosphatase (AP) catalyzed chromogenic product.
Subsequently, 200 μl of FRAP condition medium and porphyrin/corrole compound were added and incubated together for 2 h.
In order to identify inhibitors of FGF-FGFR interactions, an assay for testing FGFR-ligand binding was developed. The system is composed of bFGF bound to a heparin matrix to which soluble FGFR-1 ectodomain alkaline phosphatase fusion protein (FRAP) and the screened compounds are added (see Methods, section (ii)).

[3] = molecular target: T2, FGFR-3 (Homo sapiens, UniProt P22607); test: Binding of 125I-FGF9 to immobilized soluble FGFR-3 (FR-3-AP); settings: FIG. 11
T2 construct: soluble FGFR-3 ectodomain alkaline phosphatase fusion protein (FR-3-AP); made in house; host or cells: NIH 3T3 cells (conditioned medium)
T2 sequence (P22607 23-375 limits assumed): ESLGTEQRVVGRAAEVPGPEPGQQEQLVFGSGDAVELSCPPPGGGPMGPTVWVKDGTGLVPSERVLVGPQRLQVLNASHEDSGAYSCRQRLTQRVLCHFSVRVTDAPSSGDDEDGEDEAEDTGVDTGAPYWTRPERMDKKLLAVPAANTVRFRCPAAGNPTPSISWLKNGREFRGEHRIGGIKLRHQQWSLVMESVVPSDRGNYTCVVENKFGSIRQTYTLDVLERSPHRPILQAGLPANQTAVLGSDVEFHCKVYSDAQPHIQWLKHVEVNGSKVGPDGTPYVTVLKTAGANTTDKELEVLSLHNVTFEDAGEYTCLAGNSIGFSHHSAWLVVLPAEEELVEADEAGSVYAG
Experimental: Incubations were performed in the presence of 100 ng/ml heparin and increasing concentrations of porphyrins. […] Results represent the mean value in one of at least two independent experiments.
(iii) Binding of ^125I-bFGF or ^125I-FGF9 to s luble FGFR-1 or FGFR-3. Conditioned medium from NIH 3T3 cells secreting soluble FRAP or FGFR-3 FR-3-AP, was incubated for 45 min at room temperature with rabbit anti-human placental AP antibodies (generated as described in Ornitz et al, 1991) prebound to agarose-protein A beads Pierce). The FGFR-1 or FGFR-3-coupled beads were washed three times with 1 ml HNTG and incubated with 2 ng/ml of ^125I-FGF, 1 μg/ml of heparin and porphyrin/corrole compound at different concentrations for 1 h at room temperature. High affinity-bound ^125I-bFGF was determined by counting of the samples in a γ-counter.
Thus, the compounds were tested for their capacity to inhibit binding of a soluble FGFR-3 ectodomain alkaline phosphatase fusion protein (FR-3-AP) to FGF-9, utilizing a cell free system, similar to the one described for FGFR-1 in Example 1 above, and measuring the binding of radiolabeled ^125I-FGF-9 to soluble FGFR-3.

SMILES | Effect on bFGF-induced endothelial cell growth ([1]; 10 μM, with 2 ng/ml bFGF) | Effect on microvascular tubules ([1]; 100 μl P1, with 2 ng/ml bFGF) | IC50 ([2]; FIG. 1A, read-out: IC50, inhibition of FRAP binding to bFGF immobilized on heparin matrix (converted)) | IC50 ([2]; IC50, inhibition of binding of soluble FGFR-1 to bFGF immobilized on heparin, text of detailed description) | IC50 ([2]; binding of FGF to FGFR, Methods section (ii), read-out: Screen AP assay (IC50)) | Relative potency in FGF-9/FGFR-3 soluble receptor assay, in words [3]
C[n+]1ccc(-c2c3nc(c(-c4cc[n+](C)cc4)c4ccc([nH]4)c(-c4cc[n+](C)cc4)c4nc(c(-c5cc[n+](C)cc5)c5ccc2[nH]5)C=C4)C=C3)cc1 [Compound P1, 5,10,15,20-Tetrakis(N-methyl-4-pyridylium)-21H,23H-porphine tetra-p-tosylate] | dramatically reduced the extent of endothelial cell growth | complete inhibition of microvascular tubules | 0.133 µM | 90 µM | 0.075 µM | 
C[n+]1ccc(-c2c3nc(c(-c4cc[n+](C)cc4)c4ccc([nH]4)c(-c4c(F)c(F)c(F)c(F)c4F)c4nc(c(-c5cc[n+](C)cc5)c5ccc2[nH]5)C=C4)C=C3)cc1.[I-].[I-].[I-] [Compound P16, 5-Pentafluorophenyl-10,15,20-tris(N-methyl-4-pyridylium)-21H,23H-porphine triiodide] |  |  |  |  |  | more potent
